This passage reports IC50 and Inhibition results from US20210087159A1, “TETRAHYDROCANNABINOLIC- CA[…] DERIVATIVES AND USES THEREOF” (AL&AM […]., priority 2018, published 2021).

Where only a bound is given, the exact number is not on record here.

Holding throughout (assay): CellTiter-Glo cell viability assay, cancer cell cytotoxicity/anti-proliferation panel (Chempartner)
What all share (assay type): cell-based
On the technique in general: Cellular ATP, detected with luciferase, serves as a proxy for viable cell number.

In test [1] the test system is U251, brain human glioma. The note with it: for IC50: Homo sapiens, U-251, 72 h, read-out: IC50 (absolute IC50); for Inhibition: U251, 72 hours, compounds 10 μM starting, STS 2 μM starting, 10-pt, 3-fold dilution.
Test [2] deals with A549, lung carcinoma. The note with it: for Inhibition: A549, 72 hours, compounds 10 μM starting, STS 2 μM starting, 10-pt, 3-fold dilution; for IC50: Homo sapiens, A549, 72 h, read-out: IC50 (absolute IC50).
Test [3] has as its system PANC-1, pancreas ductal carcinoma. The settings on record: for IC50: Homo sapiens, PANC-1, 72 h, read-out: IC50 (absolute IC50); for Inhibition: PANC-1, 72 hours, compounds 10 μM starting, STS 2 μM starting, 10-pt, 3-fold dilution.
Test [4] concerns SK-HEP-1, liver adenocarcinoma. The note with it: for IC50: Homo sapiens, SK-HEP1, 72 h, read-out: IC50 (absolute IC50); for Inhibition: SK-HEP-1, 72 hours, compounds 10 μM starting, STS 2 μM starting, 10-pt, 3-fold dilution.
Test [5] deals with U-87 MG, brain glioblastoma. The note with it: for Inhibition: 72 hours, compounds 10 μM starting, STS 2 μM starting, 10-pt, 3-fold dilution; for IC50: Homo sapiens, 72 h, read-out: IC50 (absolute IC50).

In general, IC50 refers to the concentration at which inhibition is half-maximal. Usually Inhibition stands for how much of the control response was suppressed. Read a high Inhibition as a response far below the control. Consider `CCCCCc1cc2c(c(O)c1C(=O)NCCN(C)C)[C@@H]1C=C(C)CC[C@H]1C(C)(C)O2` [Ia6, (6aR,0aR)—N-(2-(dimethylamino)ethyl)-1-hydroxy-6,6,9-trimethyl-3-pentyl-6a,7,8,10a-tetrahydro-6H-benzo[c]chromene-2-carboxamide], for which the half-inhibitory concentration (IC50) in test [1] is 7.23 µM; in test [2] it was 7.34 µM; in test [3], 6.02 µM; in test [4], greater than 10 µM; in test [5], greater than 10 µM. Also, the Inhibition in test [1] was determined as 70.02%; in test [2], 66.67%; in test [3], 90.10%; in test [4] it was 49.38%; in test [5], 13.79%.

For `CCCCCc1cc2c(c(O)c1C(=O)NCCCN1CCOCC1)[C@@H]1C=C(C)CC[C@H]1C(C)(C)O2` [Ia9, (6aR,0aR)-1-hydroxy-6,6,9-trimethyl-N-(3-morpholinopropyl)-3-pentyl-6a,7,8,10a-tetrahydro-6H-benzo[c]chromene-2-carboxamide], the half-maximal inhibitory concentration (IC50) in test [1] was 8.91 µM; in test [2] it was 5.59 µM; in test [3] it was 5.46 µM; in test [4] it was 5.41 µM; in test [5], greater than 10 µM. Besides, the Inhibition was 68.11% in test [1]; 77.08% in test [2]; 92.19% in test [3]; 78.20% in test [4]; 19.84% in test [5].

As for `CCCCCc1cc2c(c(O)c1C(=O)O)[C@@H]1C=C(C)CC[C@H]1C(C)(C)O2` [THCA, tetrahydrocannabinolic acid, reference compound], the IC50 in test [1], in test [2], in test [3], in test [4] and in test [5] was greater than 10 µM each time. Moreover, the Inhibition was 17.22% in test [1]; 9.30% in test [2]; 15.20% in test [3]; 16.52% in test [4]; 10.52% in test [5].
